Test [1] concerns the target T1, Elastase from porcine pancreas (Sus scrofa, UniProt P00772).
T1 construct: purchased Sigma-Aldrich; host or cells: porcine pancreas (tissue-derived commercial powder)
Description: Elastase inhibition assay, spectrophotometric (N-succinyl-Ala-Ala-Ala-p-nitroanilide, 405 nm). In kind it is biochemical. The procedure:
In order to evaluate the effect of these compounds (ILs and IL-APIs), an enzymatic reaction based on the conversion of the substrate N-succinyl-Ala-Ala-Ala-p-nitroaniline to succinyl-Ala-Ala-Ala and p-nitroaniline by the enzyme elastase was performed. The enzyme activity is determined by the formation of p-nitroaniline, the chromogenic compound resulted from the reaction. Substrate degradation was continuously monitored in the spectrophotometer by measuring increasing absorbance at 405 nm.
The EC50 values for each IL were calculated as the inhibitory concentration causing a 50% decrease in Elastase activity. The EC50 values were automatically calculated, using GraphPad prism8 software.
All the reagents (HEPES buffer, N-succinyl-Ala-Ala-Ala p-nitroanilide, Elastase and acetate buffer) were added sequentially in eppendorf, being the final volume equal to 250 µL. So, in each eppendorf it was added 137.5 µL of HEPES buffer, 10 µL of N-succinyl-Ala-Ala-Ala p-nitroanilide substrate, 30 µL of elastase, 70 µL of acetate buffer, 2.5 µL of DMSO. In inhibitory assays was 87.5 µL of HEPES buffer, 10 µL of N-succinyl-Ala-Ala-Ala p-nitroanilide substrate, 30 µL of elastase, 70 µL of acetate buffer, 2.5 µL of DMSO, and 50 µL of IL/IL-APIs.
Next, the eppendorf was placed inside the thermostatic bath at 37 °C for 10 min.
After 10 min, the reaction product was measured in spectrophotometer at 405 nm.
All assays were performed in batch mode. Thus, the different reagents were placed manually in an eppendorf at the desired concentrations and volumes. After, they were placed in a thermostatic bath where the reaction temperature was regulated for the desired period. The succinyl-Ala-Ala-Ala and p-nitroaniline result from the cleavage of the substrate N-succinyl-Ala-Ala-Ala-p-nitroaniline by porcine elastase enzyme. The enzyme activity was determined by monitoring the chromogenic compound, p-nitroaniline, at 405 nm. All results of ILs and IL-APIs were obtained in duplicate.

A further test concerns the target carboxylesterase. Conditions: read-out: EC50 for carboxylesterase; compared with elastase values; cited from earlier work.
Where [2] appears, read: IL-APIs, aqueous solutions, 37 °C, 10 min, substrate 100 µM, duplicate, read-out: EC50 (µM) ± SD.

Read-outs that look alike come from different tables or passages of the source. Where a SMILES comes first, the peptide text is derived from it. The star is where a group is joined. MeOSuc = COC(=O)CCC(=O)*; CH2Cl = ClC*

T1 sequence (P00772 27-266): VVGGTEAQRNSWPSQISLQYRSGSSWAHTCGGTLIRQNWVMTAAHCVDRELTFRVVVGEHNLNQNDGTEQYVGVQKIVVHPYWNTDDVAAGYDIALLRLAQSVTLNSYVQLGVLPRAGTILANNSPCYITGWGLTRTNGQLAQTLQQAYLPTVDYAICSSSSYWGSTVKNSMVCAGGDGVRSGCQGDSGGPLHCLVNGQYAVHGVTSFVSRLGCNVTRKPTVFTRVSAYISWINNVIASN

As usually defined, the EC50 is the concentration at which the effect is half-maximal. For `CCCCC(CC)COC(=O)CC(C(=O)OCC(CC)CCCC)S(=O)(=O)[O-].CCCCCCCCCCCCCC[P+](CCCCCC)(CCCCCC)CCCCCC` [Trihexyltetradecylphosphonium docusate], in test [1] (setting [2]), the EC50 is above 700 µM.
With Benzethonium salicylate, the EC50 in test [1] (setting [2]) was above 500 µM.
In the case of `COC(=O)CCC(=O)N[C@@H](C)C(=O)N[C@@H](C)C(=O)N1CCC[C@H]1C(=O)N[C@H](C(=O)CCl)C(C)C` [MeOSuc-Ala-Ala-Pro-Val-chloromethylketone, reference compound] (MeOSuc-AAPV-CH2Cl), in test [1] (ILs and positive control, aqueous solutions, 37 °C, 10 min, substrate 100 µM, duplicate, read-out: EC50 (mM) ± SD), the EC50 came out at 470 ± 50 µM.
For the compound `O=C([O-])c1ccccc1O.[Na+]` [Sodium salicylate, reference compound], the EC50 on carboxylesterase was 116.99 ± 0.02 µM; in test [1] (read-out: EC50 (µM) ± SD), 124 ± 4 µM.
In the case of `O=S(=O)(NS(=O)(=O)C(F)(F)F)C(F)(F)F` [Lithium bistriflimide], the concentration for a half-maximal effect (EC50) in test [1] (setting [2]) amounted to 209 ± 12 µM.
Same read-out and setting: to `CC(C)(C)CC(C)(C)c1ccc(OCCOCC[N+](C)(C)Cc2ccccc2)cc1.O=S(=O)([N-]S(=O)(=O)C(F)(F)F)C(F)(F)F` [Benzethonium bistriflimide] belongs above 1000 µM; to Benzethonium docusate, above 200 µM; to Benzalkonium salicylate, 230 ± 20 µM.
On to `CCCCCCCCCCCCCC[P+](CCCCCC)(CCCCCC)CCCCCC` [Trihexyltetradecyphosphonium chloride], for which the half-maximal effective concentration (EC50) in test [1] (setting [2]) was above 100 µM.
The same measure, in the same setting: to `CCCC[P+](C)(CCCC)CCCC` [Tributylmethylphosphonium salicylate] belongs above 200 µM.

The record behind these values is PMC7796259, “Evaluation of Ionic Liquids and Ionic Liquids Active Pharmaceutical Ingredients Inhibition in Elastase Enzyme Activity” (Molecules, 2021).
